Consider 3 compounds from US9376663B2, “GPR15-mediated homing and uses thereof” (New York University, priority 2013, dated 2016).

For assay [1], the target named is T1, inducible caspase 9 (iCasp9) (Homo sapiens, UniProt P55211+P62942, F37V).
T1 construct: human caspase 9 (fusion partner in the same polypeptide)
The following applies: patients wherein GVHD developed; cited from earlier work.

Assay [2] has as its system homing of T cells to the large intestine lamina propria (LILP). The assay can be described thus: Short-term competitive homing assay. It counts as in vivo, mouse. The following applies: GPR15+ cells treated before transfer, co-transfer with untreated control-transduced cells. The method, then:
The coding region of mouse GPR15 was cloned into the MSCV-IRES-Thy1.1 retroviral construct (38). Retroviruses were generated by transient transfection of Phoenix cells. CD4^+ CD62L^highCD44^lowCD25^− Tnaive cells were sorted by FACS Aria IIu (BD Biosciences) and stimulated with 0.25 μg/ml of αCD3ε (145-2c11, ATCC) and 1 μg/ml of αCD28 (37.51, eBiosciences) antibodies cross-linked by plate-bound α-hamster IgG (MP Biochemical) in RPMI-10. At day 1 and day 2 after stimulation, cells were transduced with retrovirus (spinning at 850 g for 2 h with 4 μg/ml of polybrene). CD4^+ Tnaive cells from B6. SJL-Ptprc^aPep3^b/BoyJ (The Jackson Laboratory) were used for transduction of Gpr15 and CD4^+ Tnaive cells from C57BL/6 were used for transduction of empty vector. At day 3, cells were washed and plated again only with 100 U/ml of IL-2. At day 5, live cells were harvested by lymphocyte-M (Cedarlane). The congenic cells were mixed at a 1:1 ratio and 20-30 million mixed cells in total were transferred intravenously into the recipient mice (C57BL/6). Migration of donor cells into each organ was determined at 10 h after transfer (unless specified) by flow cytometry analysis. All donor cells expressed THY1.1 and GPR15-expressing cells and control cells expressed CD45.1 and CD45.2, respectively. […]

In the next assay the test system is GPR15 expression. The assay can be described thus: In vitro stimulation of T cells to examine GFP (GPR15 reporter) induction. It counts as cell-based, mouse. As to conditions: various concentration of retinoic acid with IL-2 only, 3 days, CD4+ Tnaive and Tregs from Gpr15gfp/+ Foxp3ires-mrfp mice. Here is the method:
All T cell cultures were done in RPMI-10. CD4^+ Tnaive (CD62L^hiCD44^loCD25^−mRFP^− GFP^−), Tregs with naive phenotype (CD62L^hiCD44^loCD25^+mRFP^+ GFP^−), Tmemory (CD62L^loCD44^hiCD25^−mRFP^− GFP^−), and Tregs with memory phenotype (CD62L^loCD44^hiCD25^+mRFP^+ GFP^−) were sorted from Gpr15^gfp/+ Foxp3^ires-mrfp mice. Sorted cells were stimulated with 0.25 μg/ml αCD3ε (145-2c11, ATCC) and 1 μg/ml of αCD28 antibodies (37.51, eBiosciences) cross-linked by plate-bound α-hamster IgG in the presence of human IL-2 (100 U/ml) alone, or additionally with IL-21 (10 ng/ml, R&D systems) or IL-6 (20 ng/ml, Peprotech), or IL-27 (20 ng/ml, eBioscience) in the presence of varying concentrations of human TGF-β1 (αTGFβ blocking antibody [R&D systems], or 0, 0.5 ng/ml, or 5 ng/ml TGF-β1 [Peprotech]) for 3 days. The same conditions were used for retinoic acid (Sigma-Aldrich) treatment with IL-2 only.

T1 sequence (P62942+P55211 fused P62942:F37V): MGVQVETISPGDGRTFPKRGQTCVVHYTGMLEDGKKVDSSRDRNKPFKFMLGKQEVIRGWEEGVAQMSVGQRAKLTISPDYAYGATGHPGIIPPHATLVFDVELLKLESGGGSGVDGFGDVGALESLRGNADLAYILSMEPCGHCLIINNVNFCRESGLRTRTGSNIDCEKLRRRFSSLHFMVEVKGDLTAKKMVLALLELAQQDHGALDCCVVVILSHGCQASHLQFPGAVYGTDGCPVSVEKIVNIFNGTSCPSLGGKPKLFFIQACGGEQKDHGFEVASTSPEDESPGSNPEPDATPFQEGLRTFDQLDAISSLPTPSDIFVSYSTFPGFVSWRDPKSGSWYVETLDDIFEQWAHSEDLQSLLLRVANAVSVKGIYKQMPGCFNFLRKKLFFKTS

As for `CC[C@H](C(=O)N1CCCC[C@H]1C(=O)O[C@H](CCc1ccc(OC)c(OC)c1)c1cccc(OCC(=O)NCCNC(=O)COc2cccc([C@@H](CCc3ccc(OC)c(OC)c3)OC(=O)[C@@H]3CCCCN3C(=O)[C@@H](CC)c3cc(OC)c(OC)c(OC)c3)c2)c1)c1cc(OC)c(OC)c(OC)c1` [AP1903], the “elimination of the transplanted genetically modified T cells” value in assay [1] is “greater than 90%”.
On to pertussis toxin, for which the “enrichment of Gpr15-transduced cells in the LILP after treatment of the cells before transfer” value in assay [2] is given as “no longer enriched in the LILP”.
For the compound `CC1=C(/C=C/C(C)=C/C=C/C(C)=C/C(=O)O)C(C)(C)CCC1` [Retinoic acid], the “GPR15 induction (GFP reporter)” value in the assay with GPR15 expression is “does not induce GPR15 expression”; with GPR15 expression (listed as RA) it was “not induced”.
